According to US8686150B2 (Sanofi, priority 2011, dated 2014):

Biological target: T1, human full-length recombinant PKC βII (Homo sapiens, UniProt P05771)
T1 construct: Active human full-length recombinant PKC βII; purchased Invitrogen GmbH, Darmstadt, Germany
Assay: Determination of PKC βII inhibition (Caliper mobility-shift kinase assay, Fluorescein-RFARKGSLRQKNV peptide substrate)
Assay type: biochemical
Details: example compounds at a final concentration of 1.14 μM (±0.15 μM)
In short: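 Full-length PKC βII (30 ng/ml in pre-dilution) with PS/DAG/Ca2+ activators, pH 7.4; fluorescein peptide and ATP at 3 μM and 120 μM before mixing. Reaction ran 60 min at 32 °C, was EDTA-stopped, and was read by mobility shift. % inhibition came from product/(substrate+product) peak heights, tested at 1.14 μM final.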

T1 sequence (P05771 1-673 isoform P05771-2): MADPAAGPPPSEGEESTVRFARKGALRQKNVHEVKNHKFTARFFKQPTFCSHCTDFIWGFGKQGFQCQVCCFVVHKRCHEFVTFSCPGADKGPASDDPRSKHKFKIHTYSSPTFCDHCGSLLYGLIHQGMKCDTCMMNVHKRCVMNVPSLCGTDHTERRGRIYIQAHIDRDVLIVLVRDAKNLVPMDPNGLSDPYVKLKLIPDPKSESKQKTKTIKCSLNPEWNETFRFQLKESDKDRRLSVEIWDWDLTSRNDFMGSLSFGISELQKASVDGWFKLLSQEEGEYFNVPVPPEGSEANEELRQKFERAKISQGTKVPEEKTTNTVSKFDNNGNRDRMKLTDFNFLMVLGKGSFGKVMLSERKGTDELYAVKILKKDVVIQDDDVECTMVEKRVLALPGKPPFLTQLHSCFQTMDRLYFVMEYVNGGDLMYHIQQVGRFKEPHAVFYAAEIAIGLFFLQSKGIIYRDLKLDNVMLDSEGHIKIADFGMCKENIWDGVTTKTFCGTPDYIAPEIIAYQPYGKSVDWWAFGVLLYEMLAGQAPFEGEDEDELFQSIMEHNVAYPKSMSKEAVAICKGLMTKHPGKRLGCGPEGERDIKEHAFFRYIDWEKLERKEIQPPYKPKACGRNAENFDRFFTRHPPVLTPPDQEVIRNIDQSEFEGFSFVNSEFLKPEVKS

| Compound | inhibition at 1.14 µM |
| --- | --- |
| Cc1n[nH]c2nc(-c3ccc(O)cc3)cc(C(=O)N[C@@H]3CCC[C@H]3N)c12 [Example 120, 6-(4-Hydroxy-phenyl)-3-methyl-1H-pyrazolo[3,4-b]pyridine-4-carboxylic acid ((1R,2R)-2-amino-cyclopentyl)-amide] | 88% |
| CCc1n[nH]c2nc(-c3ccc(O)cc3)cc(C(=O)N3CCC(N)CC3)c12 [Example 166, (4-Amino-piperidin-1-yl)-[3-ethyl-6-(4-hydroxy-phenyl)-1H-pyrazolo[3,4-b]pyridin-4-yl]-methanone] | 87% |
| Cc1n[nH]c2nc(-c3ccc(O)cc3)cc(C(=O)N3CC4CCCN4CC3C)c12 (centres unmarked) [Example 284, [6-(4-Hydroxy-phenyl)-3-methyl-1H-pyrazolo[3,4-b]pyridin-4-yl]-(3-methyl-hexahydro-pyrrolo[1,2-a]pyrazin-2-yl)-methanone] | 66% |
| Cc1cc(O)ccc1-c1cc(C(=O)N2CCNCC2c2ccccc2Cl)c2c(C)n[nH]c2n1 (centres unmarked) [Example 153, [2-(2-Chloro-phenyl)-piperazin-1-yl]-[6-(4-hydroxy-2-methyl-phenyl)-3-methyl-1H-pyrazolo[3,4-b]pyridin-4-yl]-methanone] | 89% |
| Cc1n[nH]c2nc(-c3ccc(O)cc3)cc(C(=O)N3CCCC4(CCNC4)C3)c12 (centres unmarked) [Example 263, (2,7-Diaza-spiro[4.5]dec-7-yl)-[6-(4-hydroxy-phenyl)-3-methyl-1H-pyrazolo[3,4-b]pyridin-4-yl]-methanone] | 65% |
| Cc1n[nH]c2nc(-c3ccc(O)cc3)cc(C(=O)N3CCNC(C)C3)c12 (centres unmarked) [Example 221, [6-(4-Hydroxy-phenyl)-3-methyl-1H-pyrazolo[3,4-b]pyridin-4-yl]-(3-methyl-piperazin-1-yl)-methanone] | 100% |
| COC(=O)CC1CNCCN1C(=O)c1cc(-c2ccc(O)cc2)nc2[nH]nc(C)c12 (centres unmarked) [Example 197, {1-[6-(4-Hydroxy-phenyl)-3-methyl-1H-pyrazolo[3,4-b]pyridine-4-carbonyl]-piperazin-2-yl}-acetic acid methyl ester] | 95% |
| Cc1n[nH]c2nc(-c3ccc(O)cc3)cc(C(=O)N3CCOC4(CCCNC4)C3)c12 (centres unmarked) [Example 258, [6-(4-Hydroxy-phenyl)-3-methyl-1H-pyrazolo[3,4-b]pyridin-4-yl]-(1-oxa-4,8-diaza-spiro[5.5]undec-4-yl)-methanone] | 78% |
| CCc1n[nH]c2nc(-c3ccc(O)cc3)cc(C(=O)NC3CCN(C)CC3)c12 [Example 182, 3-Ethyl-6-(4-hydroxy-phenyl)-1H-pyrazolo[3,4-b]pyridine-4-carboxylic acid (1-methyl-piperidin-4-yl)-amide] | 44% |
| Cc1n[nH]c2nc(-c3ccc(O)cc3)cc(C(=O)NC3CNC3)c12 [Example 248, 6-(4-Hydroxy-phenyl)-3-methyl-1H-pyrazolo[3,4-b]pyridine-4-carboxylic acid azetidin-3-ylamide] | 83% |
| Cc1n[nH]c2nc(-c3ccc(O)cc3)cc(C(=O)N3CCN(C(N)=O)CC3)c12 [Example 54, 4-[6-(4-Hydroxy-phenyl)-3-methyl-1H-pyrazolo[3,4-b]pyridine-4-carbonyl]-piperazine-1-carboxylic acid amide] | 41% |
| Cc1n[nH]c2nc(-c3cc(F)c(O)c(F)c3)cc(C(=O)N3CCNC[C@@H]3C)c12 [Example 16, [6-(3,5-Difluoro-4-hydroxy-phenyl)-3-methyl-1H-pyrazolo[3,4-b]pyridin-4-yl]-((S)-2-methyl-piperazin-1-yl)-methanone] | 69% |
| CCCC1(NC(=O)c2cc(-c3ccc(O)cc3)nc3[nH]nc(C)c23)CCNCC1 [Example 118, 6-(4-Hydroxy-phenyl)-3-methyl-1H-pyrazolo[3,4-b]pyridine-4-carboxylic acid (4-propyl-piperidin-4-yl)-amide] | 98% |
| Cc1n[nH]c2nc(-c3ccc(O)cc3)cc(C(=O)N3CCC(CN4CCCCC4)CC3)c12 [Example 287, [6-(4-Hydroxy-phenyl)-3-methyl-1H-pyrazolo[3,4-b]pyridin-4-yl]-(4-piperidin-1-ylmethyl-piperidin-1-yl)-methanone] | 34% |
| Cc1n[nH]c2nc(-c3ccc(O)cc3)cc(C(=O)N3CCNC[C@@H]3c3cccc(F)c3)c12 [Example 82, [(S)-2-(3-Fluoro-phenyl)-piperazin-1-yl]-[6-(4-hydroxy-phenyl)-3-methyl-1H-pyrazolo[3,4-b]pyridin-4-yl]-methanone] | 92% |
| Cc1n[nH]c2nc(-c3ccc(O)c(Cl)c3)cc(C(=O)N3CCNCC3)c12 [Example 9, [6-(3-Chloro-4-hydroxy-phenyl)-3-methyl-1H-pyrazolo[3,4-b]pyridin-4-yl]-piperazin-1-yl-methanone] | 41% |
| Cc1cc(O)ccc1-c1cc(C(=O)N2CCNCC2c2ccc(Br)cc2)c2c(C)n[nH]c2n1 (centres unmarked) [Example 137, [2-(4-Bromo-phenyl)-piperazin-1-yl]-[6-(4-hydroxy-2-methyl-phenyl)-3-methyl-1H-pyrazolo[3,4-b]pyridin-4-yl]-methanone] | 99% |
| CCC[C@@H]1CN(C(=O)c2cc(-c3ccc(O)cc3)nc3[nH]nc(C)c23)CCN1 [Example 195, [6-(4-Hydroxy-phenyl)-3-methyl-1H-pyrazolo[3,4-b]pyridin-4-yl]-((R)-3-propyl-piperazin-1-yl)-methanone] | 95% |
| Cc1n[nH]c2nc(-c3ccc(O)cc3)cc(C(=O)N3CC[C@@H](C4(N)CC4)C3)c12 [Example 203, [(R)-3-(1-Amino-cyclopropyl)-pyrrolidin-1-yl]-[6-(4-hydroxy-phenyl)-3-methyl-1H-pyrazolo[3,4-b]pyridin-4-yl]-methanone] | 71% |
| CCc1n[nH]c2nc(-c3ccc(O)cc3)cc(C(=O)N[C@@H]3CCC(=O)NC3)c12 [Example 185, 3-Ethyl-6-(4-hydroxy-phenyl)-1H-pyrazolo[3,4-b]pyridine-4-carboxylic acid ((R)-6-oxo-piperidin-3-yl)-amide] | 34% |
| Cc1n[nH]c2nc(-c3ccc(O)cc3)cc(C(=O)NCC3(N)CCCCCC3)c12 [Example 116, 6-(4-Hydroxy-phenyl)-3-methyl-1H-pyrazolo[3,4-b]pyridine-4-carboxylic acid (1-amino-cycloheptylmethyl)-amide] | 76% |
| Cc1n[nH]c2nc(-c3ccc(O)cc3)cc(C(=O)N[C@H]3C[C@@H]3N)c12 (racemic) [Example 251, 6-(4-Hydroxy-phenyl)-3-methyl-1H-pyrazolo[3,4-b]pyridine-4-carboxylic acid (trans-2-amino-cyclopropyl)-amide] | 53% |

Continued, values first:

| inhibition at 1.14 µM | Compound |
| --- | --- |
| 47% | CNC1CCN(C(=O)c2cc(-c3ccc(O)cc3)nc3[nH]nc(C(F)(F)F)c23)C1 (centres unmarked) [Example 406, [6-(4-Hydroxy-phenyl)-3-trifluoromethyl-1H-pyrazolo[3,4-b]pyridin-4-yl]-(3-methylamino-pyrrolidin-1-yl)-methanone] |
| 64% | COc1ccc(C(CNC(=O)c2cc(-c3ccc(O)cc3)nc3[nH]nc(C)c23)N(C)C)cc1 (centres unmarked) [Example 376, 6-(4-Hydroxy-phenyl)-3-methyl-1H-pyrazolo[3,4-b]pyridine-4-carboxylic acid [2-dimethylamino-2-(4-methoxy-phenyl)-ethyl]-amide] |
| 30% | Cc1n[nH]c2nc(-c3ccc(O)cc3F)cc(C(=O)N3CCC(C)(N)CC3)c12 [Example 418, (4-Amino-4-methyl-piperidin-1-yl)-[6-(2-fluoro-4-hydroxy-phenyl)-3-methyl-1H-pyrazolo[3,4-b]pyridin-4-yl]-methanone] |
| 106% | Cc1n[nH]c2nc(-c3ccc(O)cc3F)cc(C(=O)N3CC(C)NCC3(C)C)c12 (centres unmarked) [Example 434, [6-(2-Fluoro-4-hydroxy-phenyl)-3-methyl-1H-pyrazolo[3,4-b]pyridin-4-yl]-(2,2,5-trimethyl-piperazin-1-yl)-methanone] |
| 99% | CCC1CN(C(=O)c2cc(-c3ccc(O)cc3F)nc3[nH]nc(C)c23)C(CC)CN1 (centres unmarked) [Example 445, (2,5-Diethyl-piperazin-1-yl)-[6-(2-fluoro-4-hydroxy-phenyl)-3-methyl-1H-pyrazolo[3,4-b]pyridin-4-yl]-methanone] |
| 60% | NC1CCN(C(=O)c2cc(-c3ccc(O)cc3)nc3[nH]nc(C(F)(F)F)c23)CC1 [Example 399, (4-Amino-piperidin-1-yl)-[6-(4-hydroxy-phenyl)-3-trifluoromethyl-1H-pyrazolo[3,4-b]pyridin-4-yl]-methanone] |
| 67% | Cc1n[nH]c2nc(-c3ccc(O)c(F)c3)cc(C(=O)N3CCC4(CCNC4)C3)c12 (centres unmarked) [Example 340, (2,7-Diaza-spiro[4.4]non-2-yl)-[6-(3-fluoro-4-hydroxy-phenyl)-3-methyl-1H-pyrazolo[3,4-b]pyridin-4-yl]-methanone] |
| 99% | Cc1n[nH]c2nc(-c3ccc(O)c(F)c3)cc(C(=O)N3CCNC[C@@H]3C)c12 [Example 313, [6-(3-Fluoro-4-hydroxy-phenyl)-3-methyl-1H-pyrazolo[3,4-b]pyridin-4-yl]-((S)-2-methyl-piperazin-1-yl)-methanone] |
| 21% | O=C(c1cc(-c2ccc(O)cc2)nc2[nH]nc(C(F)(F)F)c12)N1CCC2CNCC21 (centres unmarked) [Example 408, (Hexahydro-pyrrolo[3,4-b]pyrrol-1-yl)-[6-(4-hydroxy-phenyl)-3-trifluoromethyl-1H-pyrazolo[3,4-b]pyridin-4-yl]-methanone] |
| 23% | O=C(c1cc(-c2ccc(O)cc2)nc2[nH]nc(C(F)(F)F)c12)N1CCC2(CCNCC2)C1 [Example 409, (2,8-Diaza-spiro[4.5]dec-2-yl)-[6-(4-hydroxy-phenyl)-3-trifluoromethyl-1H-pyrazolo[3,4-b]pyridin-4-yl]-methanone] |
